Experiments:
[1] = Photostability under visible light; assay type: physicochemical; settings: after 1 day of exposure to visible light, 10 μg/mL
Method: The effect of the light exposure on the degradation of ITM or IM was determined with visible light at room temperature. The ICG and ICG-loaded micelles were diluted with distilled water to a final concentration of 10 μg/mL and were loaded into a 12-well plate. The fluorescence intensity was measured for up to 6 days. After incubation, the remaining fluorescence of each sample was measured using a spectrofluorometer with excitation and emission wavelengths of 745 nm and 840 nm, respectively. For the quantitative analysis, we normalized the fluorescence signal intensity.

[2] = system: popliteal (PO) LN; assay: NIR fluorescence LN imaging of normal mice; assay type: in vivo, BALB/c nude mice; settings: intradermal injection into right paw, ICG 1.0 mg/kg
Method: For the SLN metastasis model, 1 × 10^7 HeLa-luc cells in 15 μL PBS were injected into the right hock of 5-week-old BALB/c-nude mice. The mice were monitored by BLI weekly to detect tumor metastases. After 1 month, tumor was about 5 mm with PO LN metastasis. HeLa-bearing mice were divided two groups randomly (n=10) and injected ITM and IM micelles via foot at equivalent ICG dose of 2 μg. At designed time points (5 min, 30 min, 1 h, 12 h and 24 h), the NIR fluorescence images in vivo were obtained. At 30 min and 1 h post injection, 2 mice from each group were randomly sacrificed and the excised main LNs were imaged. After 24 h post injection, LNs and main organs (heart, liver, spleen, lung, and kidney) were handled as described. In the same way, normal mice were divided into two groups randomly (n=5) and injected intradermally ITM or IM via foot. The NIR fluorescence images were acquired as mentioned above.

[3] = Plasma pharmacokinetic study; assay type: in vivo, BALB/c-nude mice; settings: 0.5 mg/kg ICG
Method: Normal BALB/c-nude mice were administered intravenously with ITM or free ICG solution at an dose of 10 μg, respectively. At designed time points of 5 min, 10 min, 30 min, 1 h, 2 h, 3 h, 4 h, 8 h and 12 h post- injection, […] blood samples were collected into EDTA tubes and centrifuged at 6000 rpm for 10 min to obtain plasma. A fluorescence spectrophotometer with excitation and emission wavelengths of 745 nm and 840 nm was used to measure the ICG of the supernatant. The ICG content in the plasma was then assayed.

- fluorescence intensity remaining, of initial value [1]: less than 50%
- Cmax ([3]; BALB/c-nude, mouse, iv): 134 ng/mL
- MRT ([3]; BALB/c-nude, mouse, iv): 268 min
- Tmax ([3]; BALB/c-nude, mouse, iv): 5 min
- clearance ([3]; BALB/c-nude, mouse, iv): 18 mL/min/kg
- half-life ([3]; BALB/c-nude, mouse, iv): 4 min
- AUC(0-t) ([3]; BALB/c-nude, mouse, iv, read-out: AUC (0-12 h) in plasma (converted)): 224 ng·h/mL
- V ([3]; i.v.): 21.358 L/kg
SMILES: CC1(C)C(/C=C/C=C/C=C/C=C2\N(CCCCS(=O)(=O)O)c3ccc4ccccc4c3C2(C)C)=[N+](CCCCS(=O)(=O)[O-])c2ccc3ccccc3c21 [Free ICG, indocyanine green]
- time within which the NIR fluorescence signal in SLN decreased quickly [2]: ≤ 1 h

Source: PMC6831285, “TMTP1-modified Indocyanine Green-loaded Polymeric Micelles for Targeted Imaging of Cervical Cancer and Metastasis Sentinel Lymph Node in vivo” (Theranostics, 2019)
